ChEMBL document CHEMBL5143671, “Discovery of (R)-(3-fluoropyrrolidin-1-yl)(6-((5-(trifluoromethyl)pyridin-2-yl)oxy)quinolin-2-yl)methanone (ABBV-318) and analogs as small molecule Nav1.7/ Nav1.8 blockers for the treatment of pain” (Bioorg Med Chem, 2022)
Values after ≈ are worked out from the molar mass of the structure shown.

Experiments:
[1] = biological target: Voltage-gated inwardly rectifying potassium channel KCNH2 (Homo sapiens, UniProt Q12809);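 also: hERG channel blockade measured by electrophysiology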
[2] = human, microsomes, 0.5 h, 0.5 µM
[3] = rat, microsomes, 0.5 h, 0.5 µM
physchem [4] = settings: octanol/water
physchem [5] = settings: phosphate buffer
in vitro [6] = settings: dog, MDCK
[7] = biological target: Sodium channel protein type 5 subunit alpha (Homo sapiens, UniProt Q14524)
[8] = rat, in vivo, po
in vivo [9] = settings: Sprague-Dawley, rat, iv
in vivo [10] = settings: Sprague-Dawley, rat, po
in vivo [11] = settings: Sprague-Dawley, rat, po; remark: listed apart in the source
in vitro [12] = settings: PAMPA
MDR1 = test: in vitro; settings: dog, MDCK-MDR1
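For logD in this document: distribution coefficient quantified using high-throughput LC-MS.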
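For solubility in this document: determined using a high-throughput solubility method.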

Sodium channel protein type 5 subunit alpha, sequence (Q14524 whole entry): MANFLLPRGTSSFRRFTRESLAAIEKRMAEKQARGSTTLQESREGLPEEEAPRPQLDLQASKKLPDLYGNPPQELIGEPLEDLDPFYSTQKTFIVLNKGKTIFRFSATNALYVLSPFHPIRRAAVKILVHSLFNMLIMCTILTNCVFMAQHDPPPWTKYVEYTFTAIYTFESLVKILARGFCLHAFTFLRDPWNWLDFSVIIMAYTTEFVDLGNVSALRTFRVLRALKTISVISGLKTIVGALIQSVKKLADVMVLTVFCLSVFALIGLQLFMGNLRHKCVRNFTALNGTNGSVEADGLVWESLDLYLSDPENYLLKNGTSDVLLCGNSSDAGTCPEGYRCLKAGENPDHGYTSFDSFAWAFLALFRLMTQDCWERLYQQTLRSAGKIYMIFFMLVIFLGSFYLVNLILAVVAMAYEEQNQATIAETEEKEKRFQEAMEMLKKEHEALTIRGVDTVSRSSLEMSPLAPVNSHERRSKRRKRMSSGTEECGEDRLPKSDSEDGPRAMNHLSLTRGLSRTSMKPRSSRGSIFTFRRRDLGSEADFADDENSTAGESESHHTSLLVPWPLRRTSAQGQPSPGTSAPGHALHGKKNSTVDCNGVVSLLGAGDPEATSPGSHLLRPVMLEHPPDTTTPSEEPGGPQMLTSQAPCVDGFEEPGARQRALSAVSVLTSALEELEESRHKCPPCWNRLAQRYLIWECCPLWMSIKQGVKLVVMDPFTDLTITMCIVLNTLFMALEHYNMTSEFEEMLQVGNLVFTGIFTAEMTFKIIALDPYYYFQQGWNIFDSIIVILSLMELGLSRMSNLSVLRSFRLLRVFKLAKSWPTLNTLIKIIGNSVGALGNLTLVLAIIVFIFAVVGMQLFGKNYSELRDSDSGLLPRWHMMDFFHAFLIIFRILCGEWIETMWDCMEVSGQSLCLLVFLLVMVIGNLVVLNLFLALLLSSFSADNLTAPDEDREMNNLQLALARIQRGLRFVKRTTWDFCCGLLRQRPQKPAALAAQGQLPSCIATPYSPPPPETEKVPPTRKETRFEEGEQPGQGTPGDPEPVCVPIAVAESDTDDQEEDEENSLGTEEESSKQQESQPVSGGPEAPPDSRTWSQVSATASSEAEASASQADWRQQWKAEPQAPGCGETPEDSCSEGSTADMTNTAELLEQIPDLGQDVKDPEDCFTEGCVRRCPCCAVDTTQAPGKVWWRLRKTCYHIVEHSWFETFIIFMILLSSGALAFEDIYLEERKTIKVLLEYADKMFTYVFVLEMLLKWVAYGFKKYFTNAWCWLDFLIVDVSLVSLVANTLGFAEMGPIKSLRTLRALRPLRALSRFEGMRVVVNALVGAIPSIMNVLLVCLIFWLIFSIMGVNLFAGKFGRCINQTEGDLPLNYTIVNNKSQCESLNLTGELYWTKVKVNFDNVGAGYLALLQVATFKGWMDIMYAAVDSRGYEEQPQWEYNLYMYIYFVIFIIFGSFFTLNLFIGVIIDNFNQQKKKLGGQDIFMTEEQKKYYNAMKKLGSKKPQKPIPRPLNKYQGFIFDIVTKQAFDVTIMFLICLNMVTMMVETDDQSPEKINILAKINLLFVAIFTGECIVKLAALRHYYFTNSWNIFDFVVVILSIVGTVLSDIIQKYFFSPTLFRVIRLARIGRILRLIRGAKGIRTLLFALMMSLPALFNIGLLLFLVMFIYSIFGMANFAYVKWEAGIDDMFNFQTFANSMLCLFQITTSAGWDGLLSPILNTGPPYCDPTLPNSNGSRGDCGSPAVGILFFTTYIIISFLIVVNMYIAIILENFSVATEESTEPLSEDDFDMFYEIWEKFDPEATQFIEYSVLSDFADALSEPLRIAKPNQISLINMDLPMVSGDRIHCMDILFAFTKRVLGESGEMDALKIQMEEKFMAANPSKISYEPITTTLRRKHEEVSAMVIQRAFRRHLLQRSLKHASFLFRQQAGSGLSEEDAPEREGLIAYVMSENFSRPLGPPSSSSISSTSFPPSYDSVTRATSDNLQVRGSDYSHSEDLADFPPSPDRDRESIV
Voltage-gated inwardly rectifying potassium channel KCNH2, sequence (Q12809 whole entry): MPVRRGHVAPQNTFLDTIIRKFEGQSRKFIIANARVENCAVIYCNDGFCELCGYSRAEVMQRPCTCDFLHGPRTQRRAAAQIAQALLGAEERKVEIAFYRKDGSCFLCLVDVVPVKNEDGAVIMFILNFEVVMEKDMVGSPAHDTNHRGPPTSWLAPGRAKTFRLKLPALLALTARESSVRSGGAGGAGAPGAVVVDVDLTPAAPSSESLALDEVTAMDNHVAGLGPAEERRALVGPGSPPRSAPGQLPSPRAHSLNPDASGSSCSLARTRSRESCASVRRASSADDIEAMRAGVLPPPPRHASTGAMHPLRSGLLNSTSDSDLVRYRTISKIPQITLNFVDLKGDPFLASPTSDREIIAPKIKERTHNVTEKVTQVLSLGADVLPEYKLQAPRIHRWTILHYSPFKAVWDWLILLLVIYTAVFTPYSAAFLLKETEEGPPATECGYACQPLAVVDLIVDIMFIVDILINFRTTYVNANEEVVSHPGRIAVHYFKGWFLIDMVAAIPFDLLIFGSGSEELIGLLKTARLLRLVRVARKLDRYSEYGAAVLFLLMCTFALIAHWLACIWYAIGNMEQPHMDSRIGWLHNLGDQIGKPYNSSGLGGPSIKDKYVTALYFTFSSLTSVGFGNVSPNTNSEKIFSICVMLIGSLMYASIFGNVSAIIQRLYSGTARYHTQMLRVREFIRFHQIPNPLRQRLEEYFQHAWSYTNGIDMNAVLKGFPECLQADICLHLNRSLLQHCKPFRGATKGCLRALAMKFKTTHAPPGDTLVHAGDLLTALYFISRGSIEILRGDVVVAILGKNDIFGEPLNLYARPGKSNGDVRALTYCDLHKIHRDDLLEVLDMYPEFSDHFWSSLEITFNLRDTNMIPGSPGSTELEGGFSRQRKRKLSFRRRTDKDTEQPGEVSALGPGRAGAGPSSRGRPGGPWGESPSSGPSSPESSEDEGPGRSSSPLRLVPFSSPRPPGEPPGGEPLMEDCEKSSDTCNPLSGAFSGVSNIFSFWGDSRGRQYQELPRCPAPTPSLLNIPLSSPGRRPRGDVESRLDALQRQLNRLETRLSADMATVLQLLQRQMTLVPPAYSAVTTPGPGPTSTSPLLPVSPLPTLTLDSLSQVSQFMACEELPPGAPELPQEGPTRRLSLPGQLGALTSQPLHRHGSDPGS

Row | CLH [2] | CLH [3] | logD (physchem [4]) | solubility (physchem [5]) | Papp (in vitro [6]) | Papp (in vitro [12]) | Compound | IC50 [1] | further results
1 | 33 mL/min/kg | < 45 mL/min/kg | 2.2 | 57.5 µM (≈ 20.3 µg/mL) | 8.7 ×10⁻⁶ cm/s |  | NC(=O)CNC(=O)COc1ccc2cc(Oc3ccccn3)ccc2n1 | 30 µM | 
2 |  |  |  | 78 µM (≈ 36.7 µg/mL) |  | 24.3 ×10⁻⁶ cm/s | O=C(c1ccc2cc(Oc3ccc(C(F)(F)F)cn3)ccc2n1)N1CCNC(C(F)(F)F)C1 (stereo not given) |  | IC50 [7]: 33 µM; Vdss [8]: 9.23 L/kg; clearance (in vivo [9]): 40.5 mL/min/kg; half-life (in vivo [10]): 3.17 h; bioavailability (in vivo [11]): 106%
3 |  |  | 3.4 | 150 µM (≈ 62.8 µg/mL) |  | 5.1 ×10⁻⁶ cm/s | O=C(c1ccc2cc(Oc3ccc(OC(F)(F)F)cn3)ccc2n1)N1CCNCC1 | 12.8 µM | half-life (in vivo [10]): 12.6 h; bioavailability (in vivo [11]): 92%
4 | 50 mL/min/kg | 217 mL/min/kg | 3.5 |  |  |  | N#Cc1ccc(Oc2ccc3nc(OCCN4CCCCC4)ccc3c2)cc1 | < 1 µM | 
5 | 100 mL/min/kg | 2400 mL/min/kg | 3.6 | 156 µM (≈ 56.7 µg/mL) | 66.9 ×10⁻⁶ cm/s |  | O=C(COc1ccc2cc(Oc3ccccn3)ccc2n1)N1CCCCC1 | 30 µM | 
6 |  |  | 2.9 | 143 µM (≈ 53.3 µg/mL) |  | 2.7 ×10⁻⁶ cm/s | N#Cc1ccc(COc2ccc3nc(C(=O)N4CCNCC4)ccc3c2)cc1 | 5.61 µM | efflux ratio (MDR1): 23.4
7 |  |  |  |  |  |  | O=C(NC1CCOC1)c1ccc2cc(Oc3ccc(C(F)(F)F)cn3)ccc2n1 (stereo not given) |  | IC50 [7]: 33 µM
8 |  |  | 2.6 | 194 µM (≈ 69.5 µg/mL) | 0.4 ×10⁻⁶ cm/s |  | N#Cc1ccc(Oc2ccc3nc(C(=O)N4CCNCC4)ccc3c2)cc1 | 5.2 µM | clearance (in vivo [9]): < 33.3 mL/min/kg; bioavailability (in vivo [11]): 89%
9 |  |  | 2.7 | 149 µM (≈ 60.1 µg/mL) |  | 3.8 ×10⁻⁶ cm/s | O=C(c1ccc2cc(Oc3cnc(C(F)(F)F)cn3)ccc2n1)N1CCNCC1 | 18.6 µM | efflux ratio (MDR1): 16.1
10 |  |  |  | 5 µM (≈ 2.05 µg/mL) |  | 3.04 ×10⁻⁶ cm/s | O=C(c1ccc2cc(Oc3ccc(C(F)(F)F)cn3)ccc2n1)N1CC(F)(F)C1 |  | IC50 [7]: 10.2 µM
11 |  |  |  |  |  |  | O=C(c1ccc2cc(Oc3ccc(C(F)(F)F)cn3)ccc2n1)N1CCCC1 |  | IC50 [7]: 33 µM
12 | 33 mL/min/kg | < 50 mL/min/kg | 3 | 0.824 µM (≈ 0.31 µg/mL) | 12.8 ×10⁻⁶ cm/s |  | N#Cc1ccc(Oc2ccc3nc(OCC(=O)NCC(N)=O)ccc3c2)cc1 | > 30 µM | efflux ratio (MDR1): 14.9
13 | 33 mL/min/kg | 100 mL/min/kg |  |  |  | 8.3 ×10⁻⁶ cm/s | N#Cc1ccc(-c2ccc3c(ccc(=O)n3CCN3CCCCC3)c2)cc1 | < 1 µM | 
14 |  |  | 3 | 200 µM (≈ 80.5 µg/mL) | 52.2 ×10⁻⁶ cm/s |  | O=C(c1ccc2cc(Oc3cccc(C(F)(F)F)n3)ccc2n1)N1CCNCC1 | 12.8 µM | clearance (in vivo [9]): 83.3 mL/min/kg
15 |  |  | 3.1 | 145 µM (≈ 54.4 µg/mL) | 19.7 ×10⁻⁶ cm/s |  | CC(=O)c1ccc(Oc2ccc3nc(C(=O)N4CCNCC4)ccc3c2)cc1 | 23.6 µM | half-life (in vivo [10]): 3.3 h; bioavailability (in vivo [11]): 54%
16 |  |  |  |  |  |  | O=C(c1ccc2cc(Oc3ccc(C(F)(F)F)cn3)ccc2n1)N1CCC1 |  | IC50 [7]: 33 µM
17 |  |  |  | 150 µM (≈ 52.9 µg/mL) |  |  | O=C(c1ccc2cc(Oc3ccc(F)cn3)ccc2n1)N1CCNCC1 | 17 µM | 
18 | 183 mL/min/kg | 200 mL/min/kg | 2.7 | 200 µM (≈ 72.9 µg/mL) | 29.4 ×10⁻⁶ cm/s |  | O=C(COc1ccc2cc(Oc3ccccn3)ccc2n1)N1CCNCC1 |  | 
19 |  |  | 1.1 | 200 µM (≈ 69.7 µg/mL) | 8 ×10⁻⁶ cm/s |  | CN1CCN(C(=O)c2ccc3cc(Oc4ccccn4)ccc3n2)CC1 | 16.8 µM | clearance (in vivo [9]): 70 mL/min/kg
